Columns and labels:
Type in all cases: in vivo
[1] = tested on: HORMU: Hordeum murinum; experiment: Pre-emergence herbicidal effect; settings: for Herbicidal action against HORMU: pre-emergence
Description: (§1) 1. Pre-Emergence Herbicidal Effect and Crop Plant Compatibility
(§2) Seeds of monocotyledonous and dicotyledonous weed plants and crop plants are placed in plastic or wood fiber pots and covered with soil. The compounds of the invention, formulated in the form of wettable powders (WP) or as emulsion concentrates (EC), are then applied onto the surface of the covering soil as aqueous suspension or emulsion with addition of 0.5% additive at a water application rate of 600 l/ha (converted).
(§3) After the treatment, the pots are placed in a greenhouse and kept under good growth conditions for the trial plants. After about 3 weeks, the effect of the preparations is scored visually in comparison with untreated controls as percentages. For example, 100% activity=the plants have died, 0% activity=like control plants.

[2] = tested on: AMARE: Amaranthus retroflexus; experiment: Pre-emergence herbicidal effect; settings: for Herbicidal action against AMARE: pre-emergence
Description: as §1, §2, §3

[3] = tested on: SETVI: Setaria viridis; experiment: Pre-emergence herbicidal effect
Description: as §1, §2, §3

[4] = tested on: ECHCG: Echinochloa crus-galli; experiment: Pre-emergence herbicidal effect
Description: as §1, §2, §3

[5] = tested on: STEME: Stellaria media; experiment: Pre-emergence herbicidal effect; settings: Table 4b; pre-emergence as titled; dosage 80 g of a.i./ha
Description: as §1, §2, §3

[6] = tested on: MATIN: Matricaria inodora; experiment: Pre-emergence herbicidal effect; settings: for Herbicidal action against MATIN: pre-emergence, dosage 320 g/ha
Description: as §1, §2, §3

[7] = tested on: ALOMY: Alopecurus myosuroides; experiment: Pre-emergence herbicidal effect
Description: as §1, §2, §3

[8] = tested on: VIOTR: Viola tricolor; experiment: Pre-emergence herbicidal effect; settings: dosage 320 g/ha
Description: as §1, §2, §3

[9] = tested on: VERPE: Veronica persica; experiment: Pre-emergence herbicidal effect; settings: dosage 320 g/ha
Description: as §1, §2, §3

[10] = tested on: POLCO: Polygonum convolvulus; experiment: Pre-emergence herbicidal effect; settings: for Herbicidal efficacy against POLCO: Table 4a, dosage 20 g of a.i./ha
Description: as §1, §2, §3

[11] = tested on: AMARE: Amaranthus retroflexus; experiment: Post-emergence herbicidal effect; settings: dosage 320 g/ha
Method: (§4) 2. Post-Emergence Herbicidal Effect and Crop Plant Compatibility
(§5) Seeds of monocotyledonous and dicotyledonous weeds and crop plants are placed in sandy loam in plastic or wood-fiber pots, covered with soil and cultivated in a greenhouse under controlled growth conditions, 2 to 3 weeks after sowing, the test plants are treated at the one-leaf stage. The compounds of the invention, formulated in the form of wettable powders (WP) or as emulsion concentrates (EC), are then sprayed onto the green parts of the plants as aqueous suspension or emulsion with addition of 0.5% additive at a water application rate of 600 l/ha (converted). After the test plants had been kept in the greenhouse under optimum growth conditions for about 3 weeks, the activity of the preparations is rated visually in comparison to untreated controls. For example, 100% activity=the plants have died, 0% activity=like control plants.

[12] = tested on: ABUTH: Abutilon theophrasti; experiment: Post-emergence herbicidal effect; settings: dosage 320 g/ha
Method: as §4, §5

[13] = tested on: ECHCG: Echinochloa crus-galli; experiment: Post-emergence herbicidal effect; settings: dosage 320 g/ha
Method: as §4, §5

[14] = tested on: STEME: Stellaria media; experiment: Post-emergence herbicidal effect
Method: as §4, §5

[15] = tested on: AVEFA: Avena fatua; experiment: Pre-emergence herbicidal effect
Description: as §1, §2, §3

[16] = tested on: PHBPU: Ipomoea purpurea; experiment: Pre-emergence herbicidal effect; settings: for Herbicidal efficacy against PHBPU: Table 4a, dosage 20 g of a.i./ha
Description: as §1, §2, §3

[17] = tested on: ABUTH: Abutilon theophrasti; experiment: Pre-emergence herbicidal effect; settings: for Herbicidal efficacy against ABUTH: Table 4a, dosage 20 g of a.i./ha
Description: as §1, §2, §3

[18] = tested on: LOLRI: Lolium rigidum; experiment: Pre-emergence herbicidal effect; settings: for Herbicidal efficacy against LOLRI: Table 4a, dosage 20 g of a.i./ha
Description: as §1, §2, §3

[19] = Table 4b, pre-emergence as titled, dosage 80 g of a.i./ha
[20] = Table 4a, pre-emergence, dosage 20 g of a.i./ha

| SMILES | Herbicidal action against AMARE ([2]; dosage 320 g/ha) | Herbicidal action against VIOTR [8] | Herbicidal action against VERPE [9] | Herbicidal action against POLCO ([10]; dosage 320 g/ha) | Herbicidal action against MATIN [6] | other results |
| --- | --- | --- | --- | --- | --- | --- |
| Cc1cc2c(s1)CCCC2Nc1ncc(C(C)(C)O)c(C)n1 (stereo not shown) [drawing 18, reference compound] | – | – | – | – | – | Herbicidal efficacy against HORMU [1, 19]: 10; Herbicidal efficacy against AMARE [2, 19]: 20; Herbicidal efficacy against SETVI [3, 19]: 20; Herbicidal efficacy against ECHCG [4, 19]: 30; Herbicidal efficacy against STEME [5]: 30; Herbicidal efficacy against MATIN [6, 19]: 20; Herbicidal efficacy against ALOMY [7, 19]: 20 |
| Cc1nc(N[C@@H]2CCc3ccccc32)ncc1C(C)O (stereo partly shown) [Example 1.47] | 100% | 100% | 100% | 100% | 100% | – |
| Cc1cccc2c1CCCC2Nc1ncc(C(C)(C)O)cn1 (racemic) [Example 1.41] | 100% | 100% | 100% | 100% | 100% | – |
| CC(C)(O)c1cnc(NC2CCOc3ccccc32)nc1 (racemic) [Example 1.9] | 100% | 100% | 100% | 100% | 100% | – |
| Cc1ccc2c(c1)[C@H](Nc1ncc(C(C)O)c(C)n1)CCO2 (stereo partly shown) [Example 1.49] | 100% | 100% | 100% | 100% | 100% | Herbicidal action against AMARE [11]: 90%; Herbicidal action against ABUTH [12]: 80%; Herbicidal action against ECHCG [13]: 80%; Herbicidal action against STEME ([14]; dosage 320 g/ha): 90% |
| CC(C)=CC(C)(O)c1cnc(N[C@H]2c3cc(C)ccc3C[C@@H]2C)nc1 (stereo partly shown) [Example 1.27] | 100% | 100% | 100% | 100% | 100% | – |
| Cc1ccc2c(c1)[C@H](Nc1ncc([C@H](C)O)c(N)n1)[C@@H](C)C2 (racemic) [drawing 15, reference compound] | – | – | – | – | – | Herbicidal action against STEME ([14]; dosage 80 g/ha): 70% |
| Cc1ccc2c(c1)[C@H](Nc1ncc(C(C)O)c(C(C)F)n1)[C@@H](C)C2 (stereo partly shown) [Example 1.19] | 100% | 100% | 100% | 100% | 100% | – |
| Cc1ccc2c(c1)[C@H](Nc1ncc([C@H](C)O)c(N)n1)[C@@H](C)C2 (racemic) [drawing 5, reference compound] | – | – | – | – | – | Herbicidal action against AVEFA ([15]; dosage 80 g/ha): 20%; Herbicidal action against AVEFA ([15]; dosage 320 g/ha): 60% |
| COc1cccc2c1CCCC2Nc1ncc(C(C)(C)O)c(C)n1 (racemic) [Example 1.44] | 100% | 100% | 100% | 100% | 100% | – |
| Cc1ccc2c(c1)[C@H](Nc1ncc([C@H](C)O)c(N)n1)[C@@H](C)C2 (racemic) [drawing 8, reference compound] | – | – | – | – | – | Herbicidal action against HORMU ([1]; dosage 320 g/ha): 20%; Herbicidal action against PHBPU ([16]; dosage 320 g/ha): 20% |
| Cc1ccc2c(c1)[C@H](Nc1ncc(C(C)(C)O)c(N)n1)[C@@H](C)C2 [drawing 4, reference compound] | – | – | – | – | – | Herbicidal action against ABUTH ([17]; dosage 80 g/ha): 20%; Herbicidal action against ABUTH ([17]; dosage 320 g/ha): 60%; Herbicidal action against SETVI ([3]; pre-emergence, dosage 80 g/ha): 30%; Herbicidal action against ECHCG ([4]; pre-emergence, dosage 80 g/ha): 30%; Herbicidal action against LOLRI ([18]; dosage 80 g/ha): 40%; Herbicidal action against AVEFA ([15]; dosage 80 g/ha): 10 10%; Herbicidal action against AVEFA ([15]; dosage 320 g/ha): 10 10%; Herbicidal action against ALOMY ([7]; pre-emergence, dosage 80 g/ha): 30%; Herbicidal action against ALOMY ([7]; pre-emergence, dosage 320 g/ha): 60% |
| Cc1cc2c(s1)CCCC2Nc1ncc(C(C)(C)O)c(C)n1 (stereo not shown) [drawing 16, reference compound] | – | – | – | – | – | Herbicidal efficacy against PHBPU [16]: 0; Herbicidal efficacy against ABUTH [17]: 80; Herbicidal efficacy against SETVI [3, 20]: 80; Herbicidal efficacy against ECHCG [4, 20]: 30; Herbicidal efficacy against LOLRI [18]: 0; Herbicidal efficacy against POLCO [10]: 20; Herbicidal efficacy against ALOMY [7, 20]: 30 |
| Cc1ccc2c(c1)[C@H](Nc1ncc(C(C)(C#N)O[Si](C)(C)C)cn1)[C@@H](C)C2 (stereo partly shown) [Example 1.16] | 100% | 100% | 100% | 100% | 100% | – |
| Cc1ccc2c(c1)[C@H](Nc1ncc(C(C)(O)CC(C)C)cn1)[C@@H](C)C2 (stereo partly shown) [Example 1.25] | 100% | 100% | 100% | 100% | 100% | – |
| Cc1ccc2c(c1)[C@H](Nc1ncc(C(C)(O)c3ccccc3)cn1)[C@@H](C)C2 (stereo partly shown) [Example 1.21] | 100% | 100% | 100% | 100% | 100% | – |
| C=CCCC(C)(O)c1cnc(N[C@H]2c3cc(C)ccc3C[C@@H]2C)nc1 (stereo partly shown) [Example 1.28] | 100% | 100% | 100% | 100% | 100% | – |
| Cc1ccc2c(c1)[C@H](Nc1ncc(C(C)(C)O)c(N)n1)[C@@H](C)C2 [drawing 6, reference compound] | – | – | – | – | – | Herbicidal action against HORMU ([1]; dosage 80 g/ha): 20%; Herbicidal action against AMARE ([2]; dosage 80 g/ha): 40%; Herbicidal action against PHBPU ([16]; dosage 80 g/ha): 0%; Herbicidal action against PHBPU ([16]; dosage 320 g/ha): 0%; Herbicidal action against POLCO ([10]; dosage 80 g/ha): 0% |
| Cc1cc2c(s1)CCCC2Nc1ncc(C(C)O)c(C)n1 (stereo not shown) [drawing 17, reference compound] | – | – | – | – | – | Herbicidal efficacy against PHBPU [16]: 0; Herbicidal efficacy against ABUTH [17]: 0; Herbicidal efficacy against SETVI [3, 20]: 20; Herbicidal efficacy against ECHCG [4, 20]: 0; Herbicidal efficacy against LOLRI [18]: 0; Herbicidal efficacy against POLCO [10]: 20; Herbicidal efficacy against ALOMY [7, 20]: 0 |
| Cc1ccc2c(c1)[C@H](Nc1ncc(C(C)(O)Cc3ccccc3)cn1)[C@@H](C)C2 (stereo partly shown) [Example 1.26] | 100% | 100% | 100% | 100% | 100% | – |
| Cc1ccc2c(c1)[C@H](Nc1ncc(C(C)OCc3ccc(F)cc3)cn1)[C@@H](C)C2 (stereo partly shown) [Example 1.3] | 100% | 100% | 100% | 80% | 100% | – |

From patent publication US11477982B2, “2-amino-5-oxyalkyl-pyrimidine derivatives and their use for controlling undesired plant growth” (Bayer CropScience Aktiengesellschaft, priority 2017, dated 2022)
